Measurements taken from US12655116B2, “Substituted isophthalic acid diamides” (Bayer Aktiengesellschaft, priority 2020, dated 2026).

Columns and labels:
ABUTH [1] = assay: Pre-emergence herbicidal action against ABUTH; format: in vivo, Abutilon theophrasti; conditions: Abutilon theophrasti, 504 h; for pest or weed control at 80 g/ha: scored visually after 3 weeks vs untreated controls (100% = plants have died, 0% = like control plants); for pest or weed control at 20 g/ha: dosage 20 g/ha, scored visually after 3 weeks vs untreated controls, 100% = plants have died, 0% = like control plants, read-out: Pre-emergence action against ABUTH (herbicidal activity in percent)
Procedure, shortened: (§1)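 Herbicidal effect was assessed 3 weeks after treatment by visual comparison with untreated controls, 100% denoting dead plants. Aqueous WP or EC preparations had been applied at 600 to 800 l/ha with 0.2% wetting agent to the soil covering freshly sown seeds.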

ALOMY [2] = assay: Pre-emergence herbicidal action against ALOMY; format: in vivo, Alopecurus myosuroides; conditions: Alopecurus myosuroides, 504 h, pre-emergence; for pest or weed control at 80 g/ha: scored visually after 3 weeks vs untreated controls (100% = plants have died, 0% = like control plants); for pest or weed control at 20 g/ha: scored visually after 3 weeks, 100% = plants have died, 0% = like control plants
Procedure, shortened: as §1

AMARE [3] = assay: Pre-emergence herbicidal action against AMARE; format: in vivo, Amaranthus retroflexus; conditions: Amaranthus retroflexus, 504 h, scored visually after 3 weeks vs untreated controls, 100% = plants have died, 0% = like control plants
Procedure, shortened: as §1

AVEFA = assay: Pre-emergence herbicidal action against AVEFA; format: in vivo, Avena fatua; conditions: Avena fatua, 504 h; 80 g/ha, pre-emergence
Procedure, shortened: as §1

ECHCG [4] = assay: Pre-emergence herbicidal action against ECHCG; format: in vivo, Echinochloa crus-galli; conditions: Echinochloa crus-galli, 504 h, 80 g/ha
Procedure, shortened: as §1

LOLRI = assay: Pre-emergence herbicidal action against LOLRI; format: in vivo, Lolium rigidum; conditions: Lolium rigidum, 504 h, 80 g/ha
Procedure, shortened: as §1

MATIN [5] = assay: Pre-emergence herbicidal action against MATIN; format: in vivo, Matricaria inodora; conditions: Tripleurospermum inodorum, 504 h; for pest or weed control at 80 g/ha: dosage 80 g/ha
Procedure, shortened: as §1

PHBPU [6] = assay: Pre-emergence herbicidal action against PHBPU; format: in vivo, Pharbitis purpurea; conditions: Ipomoea purpurea, 504 h, dosage 80 g/ha
Procedure, shortened: as §1

SETVI [7] = assay: Pre-emergence herbicidal action against SETVI; format: in vivo, Setaria viridis; conditions: Setaria viridis, 504 h; for pest or weed control at 20 g/ha: dosage 20 g/ha; for pest or weed control at 80 g/ha: dosage 80 g/ha
Procedure, shortened: as §1

VERPE [8] = assay: Pre-emergence herbicidal action against VERPE; format: in vivo, Veronica persica; conditions: Veronica persica, 504 h, dosage 80 g/ha
Procedure, shortened: as §1

VIOTR [9] = assay: Pre-emergence herbicidal action against VIOTR; format: in vivo, Viola tricolor; conditions: Viola tricolor, 504 h; for pest or weed control at 20 g/ha: dosage 20 g/ha; for pest or weed control at 80 g/ha: dosage 80 g/ha
Procedure, shortened: as §1

DIGSA [10] = assay: Pre-emergence herbicidal action against DIGSA; format: in vivo, Digitaria sanguinalis; conditions: Digitaria sanguinalis, 504 h; for pest or weed control at 20 g/ha: dosage 20 g/ha; for pest or weed control at 80 g/ha: dosage 80 g/ha
Procedure, shortened: as §1

ABUTH [11] = assay: Post-emergence herbicidal action against ABUTH; format: in vivo, Abutilon theophrasti; conditions: Abutilon theophrasti, 504 h, visual assessment about 3 weeks after treatment vs untreated controls; for pest or weed control at 5 g/ha: dosage 5 g/ha; for pest or weed control at 20 g/ha: dosage 20 g/ha
Procedure, shortened: (§2)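 Herbicidal effect was scored visually in percent after about 3 weeks in the greenhouse. Plants had been raised in sandy loam and treated post-emergence at the one-leaf stage with formulated compound at 600 to 800 l/ha water plus 0.2% wetting agent.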

ALOMY [12] = assay: Post-emergence herbicidal action against ALOMY; format: in vivo, Alopecurus myosuroides; conditions: Alopecurus myosuroides, 504 h, visual assessment about 3 weeks after treatment vs untreated controls; for pest or weed control at 20 g/ha: dosage 20 g/ha
Procedure, shortened: as §2

AMARE [13] = assay: Post-emergence herbicidal action against AMARE; format: in vivo, Amaranthus retroflexus; conditions: Amaranthus retroflexus, 504 h, 20 g/ha, visual assessment about 3 weeks after treatment, 100% = plants have died, 0% = like control plants
Procedure, shortened: as §2

MATIN [14] = assay: Post-emergence herbicidal action against MATIN; format: in vivo, Matricaria inodora; conditions: Tripleurospermum inodorum, 504 h
Procedure, shortened: as §2

SETVI [15] = assay: Post-emergence herbicidal action against SETVI; format: in vivo, Setaria viridis; conditions: Setaria viridis, 504 h; for pest or weed control at 5 g/ha: dosage 5 g/ha; for pest or weed control at 20 g/ha: dosage 20 g/ha
Procedure, shortened: as §2

VERPE [16] = assay: Post-emergence herbicidal action against VERPE; format: in vivo, Veronica persica; conditions: Veronica persica, 504 h, 20 g/ha
Procedure, shortened: as §2

VIOTR [17] = assay: Post-emergence herbicidal action against VIOTR; format: in vivo, Viola tricolor; conditions: Viola tricolor, 504 h
Procedure, shortened: as §2

ECHCG [18] = assay: Post-emergence herbicidal action against ECHCG; format: in vivo, Echinochloa crus-galli; conditions: Echinochloa crus-galli, 504 h
Procedure, shortened: as §2

PHBPU [19] = assay: Post-emergence herbicidal action against PHBPU; format: in vivo, Pharbitis purpurea; conditions: Ipomoea purpurea, 504 h
Procedure, shortened: as §2

DIGSA [20] = assay: Post-emergence herbicidal action against DIGSA; format: in vivo, Digitaria sanguinalis; conditions: Digitaria sanguinalis, 504 h
Procedure, shortened: as §2

SMILES	pest or weed control at 80 g/ha (ABUTH [1])	pest or weed control at 20 g/ha (ABUTH [1])	pest or weed control at 80 g/ha (ALOMY [2])	pest or weed control at 20 g/ha (ALOMY [2])	pest or weed control at 20 g/ha (AMARE [3])	pest or weed control at 80 g/ha (AMARE [3])	pest or weed control at 80 g/ha (AVEFA)	pest or weed control at 80 g/ha (ECHCG [4])	pest or weed control at 80 g/ha (LOLRI)	pest or weed control at 80 g/ha (MATIN [5])	pest or weed control at 80 g/ha (PHBPU [6])	pest or weed control at 20 g/ha (SETVI [7])	pest or weed control at 80 g/ha (SETVI [7])	pest or weed control at 80 g/ha (VERPE [8])	pest or weed control at 20 g/ha (VIOTR [9])	pest or weed control at 80 g/ha (VIOTR [9])	pest or weed control at 20 g/ha (DIGSA [10])	pest or weed control at 80 g/ha (DIGSA [10])	pest or weed control at 5 g/ha (ABUTH [11])	pest or weed control at 20 g/ha (ABUTH [11])	other results
CCn1nnnc1NC(=O)c1ccc(Br)c(C(=O)NC)c1Cl [Example 2-177]	100%	90%	100%	90%	100%	100%	90%	90%	90%	100%	80%	100%	100%	80%	100%	100%	100%	100%	80%	90%	pest or weed control at 20 g/ha (MATIN [5]; dosage 20 g/ha): 90%; pest or weed control at 5 g/ha (ALOMY [12]; dosage 5 g/ha): 80%; pest or weed control at 20 g/ha (ALOMY [12]): 100%; pest or weed control at 20 g/ha (AMARE [13]): 100%; pest or weed control at 5 g/ha (MATIN [14]; dosage 5 g/ha): 90%; pest or weed control at 20 g/ha (MATIN [14]; dosage 20 g/ha): 90%; pest or weed control at 5 g/ha (SETVI [15]): 90%; pest or weed control at 20 g/ha (SETVI [15]): 90%; pest or weed control at 20 g/ha (VERPE [16]): 80%; pest or weed control at 5 g/ha (VIOTR [17]; 5 g/ha): 80%; pest or weed control at 20 g/ha (VIOTR [17]; 20 g/ha): 100%
Cc1nnc(NC(=O)c2ccc(C(F)(F)F)c(C(=O)NC(C)C)c2C)o1 [Example 6-255]	100%	100%	100%	90%	100%	100%	80%	100%	80%	100%	90%	100%	100%	90%	80%	90%	100%	100%	90%	90%	pest or weed control at 20 g/ha (ALOMY [12]): 90%; pest or weed control at 20 g/ha (AMARE [13]): 100%; pest or weed control at 5 g/ha (ECHCG [18]; dosage 5 g/ha): 90%; pest or weed control at 20 g/ha (ECHCG [18]; dosage 20 g/ha): 100%; pest or weed control at 5 g/ha (PHBPU [19]; dosage 5 g/ha): 90%; pest or weed control at 20 g/ha (PHBPU [19]; dosage 20 g/ha): 90%; pest or weed control at 5 g/ha (SETVI [15]): 80%; pest or weed control at 20 g/ha (SETVI [15]): 90%; pest or weed control at 20 g/ha (VERPE [16]): 80%; pest or weed control at 5 g/ha (DIGSA [20]; 5 g/ha): 90%; pest or weed control at 20 g/ha (DIGSA [20]; 20 g/ha): 100%
